Test system: P31/Fuj AML cells
Experiment: Sequential treatment of P31/Fuj cells (ATRA or LSD1 inhibitor 5 days, then MEKi 3 days; also co-treatment and reverse treatment): cell viability, cell number, apoptosis, CDI
Type: cell-based
Description: The Bliss independence model was used to derive coefficients of drug interaction (CDI) values, where CDI <1 indicates significant priming by the […] (synergistic effect).
For the proliferation/viability assays, cells were seeded in T75 flasks (0.5×10^6 cells/mL of RPMI/FBS medium) and exposed for 5 days to either vehicle or epigenetic modifier. Unless otherwise specified, the final concentration for GSK2879552 (LSD1i), […] (EZH2i), pinometostat (DOT1Li) and ATRA was 1 μM while for decitabine (DNMTAi) and vorinostat (HDACi) was 100 nM; all epigenetic inhibitors were diluted in DMSO, while ATRA was diluted in Et-OH. Vehicle concentration was kept at 0.1%. […] The final concentration of DMSO was kept at 0.1%. Finally, cells were transferred to 96-well plates (100 μL per well in 3 technical replicates per condition) and cell viability and proliferation were assessed using Guava and ApoTox-Glo Triplex analyses, as indicated below.
For Guava analysis, cells were stained with Guava ViaCount reagent (Luminex #4000-0040) in 96-well plates, by mixing 150 μL of cell suspension with 75 μL of reagent, and left to incubate for a minimum of 10 minutes in the dark, after which they were processed through a Guava easyCyte flow cytometer (Luminex #0500-5005). Flow cytometry data were analysed using CytoSoft (v2.5.7). Viability and cell number values were expressed relative to vehicle control.
For ApoTox-Glo analysis, cell suspensions were transferred to opaque 96-well plates (100 μL per well) and viability and apoptosis measured using ApoTox-Glo Triplex Assay (Promega #G6320). 20 μL of Viability/Cytotoxicity reagent (containing GF-AFC and bis-AAF-R110 substrates) were added to each well, then incubated at 37° C. for 1 hour. Live cell and cytotoxicity outputs were measured on FLUOstar Omega microplate reader (BMG Labtech). To obtain the live cell output, fluorescence was measured at 355EX/520EM (wavelengths in nm); for the cytotoxicity output, fluorescence was measured at 485EX/520EM. Following this, 100 μL of Caspase-Glo 3/7 reagent were added to each well and incubated at 25° C. for 1 hour. Luminescence was then measured on FLUOstar Omega microplate reader (BMG Labtech). The fluorescence and luminescence signals thus obtained were corrected to the respective background controls (culture medium with no cells). Relative cell number values were obtained by normalising live cell outputs to vehicle control. Apoptosis values were obtained by dividing luminescence outputs to the respective live cell outputs, then normalising to vehicle control.
The extent of drug interaction was calculated in Microsoft Excel 2016 using the CDI formula AB/(A*B), where AB is the normalized reduction in cell viability of the sequential treatment, and A and B are the effects of single treatments. Statistical significance of CDI values for each AML sample was determined using a one sample t-test (base R package) with the null hypothesis being that the mean Log2(CDI) equals 0.

[1] = LSD1i and MEKi co-treatment 3 days, P31/Fuj (FIG. 10B)

## O=C(O)c1ccc(CN2CCC(CN[C@@H]3C[C@H]3c3ccccc3)CC2)cc1 [GSK2879552]
3-day pre-treatment with MEKi followed by 5-day LSD1i, additive to strongly antagonistic, P31/Fuj
  Log2 CDI, reverse treatment: > 0
LSD1i 5 days then MEKi 3 days, all concentrations above 10 nM, strongly synergistic, P31/Fuj (FIG. 10A)
  Log2 CDI based on cell number and apoptosis, 5+3 days sequential treatment: below 0
LSD1i 5 days then MEKi 3 days, dose-dependent manner, P31/Fuj cells (FIG. 2E)
  sensitisation to the effects of MEKi (suppressing proliferation and inducing apoptosis): sensitised P31/Fuj cells to the effects of MEKi
[1]
  CDI for apoptosis, 3-day co-treatment: mildly synergistic
  CDI for proliferation, 3-day co-treatment: near additive

Source: US20240418723A1, “SEQUENTIAL TREATMENTS AND BIOMARKERS TO REVERSE RESISTANCE TO KINASE INHIBITORS” (Queen Mary University of London, priority 2021, published 2024)
